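A five-concentration, 48-hour dose response in 96-well plates underlies each endpoint, interpolated linearly between surrounding concentrations. GI50 is the concentration that inhibits growth by half.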 Calls of active or inactive are those of the source. No stated cut-off is given here; in the data, active = GI50 up to about 1.1 µM and inactive = higher.
Tests used:
Assay in all cases: NCI tumour cell line growth inhibition, 48 h
U-251 = system: U-251
SF-268 = system: SF-268
HOP-92 = system: HOP-92
OVCAR-5 = system: OVCAR-5
UACC-62 = system: UACC-62
TK-10 = system: TK-10
UACC-257 = system: UACC-257
786-0 = system: 786-0
T47D = system: T47D
SNB-19 = system: SNB-19
IGROV-1 = system: IGROV-1
MDA-MB-435 = system: MDA-MB-435
HCC 2998 = system: HCC 2998
CCRF-CEM = system: CCRF-CEM
OVCAR-3 = system: OVCAR-3
CAKI-1 = system: CAKI-1
M14 = system: M14
NCI-H23 = system: NCI-H23
A549 = system: A549
DU-145 = system: DU-145

| Compound | GI50 (U-251) | GI50 (SF-268) | GI50 (HOP-92) | GI50 (OVCAR-5) | GI50 (UACC-62) | GI50 (TK-10) | GI50 (UACC-257) | GI50 (786-0) | GI50 (T47D) | GI50 (SNB-19) | GI50 (IGROV-1) | GI50 (MDA-MB-435) | GI50 (HCC 2998) | GI50 (CCRF-CEM) | GI50 (OVCAR-3) | GI50 (CAKI-1) | GI50 (M14) | GI50 (NCI-H23) | GI50 (A549) | GI50 (DU-145) |
| --- | --- | --- | --- | --- | --- | --- | --- | --- | --- | --- | --- | --- | --- | --- | --- | --- | --- | --- | --- | --- |
| O=C(O)c1cc(O)nc(S)n1 | > 100 µM (inactive) | > 100 µM (inactive) | > 100 µM (inactive) | > 100 µM (inactive) | > 100 µM (inactive) | > 100 µM (inactive) | > 100 µM (inactive) | > 100 µM (inactive) | > 100 µM (inactive) | > 100 µM (inactive) | > 100 µM (inactive) | > 100 µM (inactive) | > 100 µM (inactive) | > 100 µM (inactive) | > 100 µM (inactive) | > 100 µM (inactive) | > 100 µM (inactive) | > 100 µM (inactive) | > 100 µM (inactive) | > 100 µM (inactive) |
| COc1ccc2c(c1)CCCC(Br)C2=O (stereo not given) | 4.72 µM (inactive) | 3.35 µM (inactive) | 7.57 µM (inactive) | 5.92 µM (inactive) | 2.8 µM (inactive) | 4.21 µM (inactive) | 11.5 µM (inactive) | 4.15 µM (inactive) | 23.9 µM (inactive) | 8.18 µM (inactive) | 1.51 µM (inactive) | 2.02 µM (inactive) | 7.66 µM (inactive) | 0.337 µM (active) | 9.08 µM (inactive) | 2.96 µM (inactive) | 3.4 µM (inactive) | 4.9 µM (inactive) | 4.71 µM (inactive) | 15.1 µM (inactive) |
| CC(C)c1ccc(C(c2c(O)oc3ccccc3c2=O)c2c(O)oc3ccccc3c2=O)cc1 | 15.1 µM (inactive) | 25.6 µM (inactive) | 7.85 µM (inactive) | 17.6 µM (inactive) | 15.5 µM (inactive) | 24.6 µM (inactive) | 21.3 µM (inactive) | 21.1 µM (inactive) | 31.2 µM (inactive) | 20.6 µM (inactive) | 24.8 µM (inactive) | 20.4 µM (inactive) | 18.7 µM (inactive) | 11.6 µM (inactive) | 18.7 µM (inactive) | 22.8 µM (inactive) | 19.6 µM (inactive) | 23.9 µM (inactive) | 19.1 µM (inactive) | 23.8 µM (inactive) |
| Cc1ccc(C)c(COCCOCn2c(=O)[nH]c(=O)c3cc(Br)ccc32)c1 | > 100 µM (inactive) | 52.6 µM (inactive) | > 100 µM (inactive) | > 100 µM (inactive) | 53 µM (inactive) | 55.3 µM (inactive) | 72.1 µM (inactive) | 29.4 µM (inactive) | 74.6 µM (inactive) | > 100 µM (inactive) | 60.3 µM (inactive) | > 100 µM (inactive) | > 100 µM (inactive) | > 100 µM (inactive) | > 100 µM (inactive) | 81.1 µM (inactive) | > 100 µM (inactive) | > 100 µM (inactive) | > 100 µM (inactive) | 90.8 µM (inactive) |
| N#CC(N)c1ccc(OCCCCCCCCCCOc2ccc(C(N)C#N)cc2)cc1 (stereo not given) | 65.3 µM (inactive) | > 100 µM (inactive) | > 100 µM (inactive) | > 100 µM (inactive) | > 100 µM (inactive) | > 100 µM (inactive) | > 100 µM (inactive) | > 100 µM (inactive) | 84.1 µM (inactive) | > 100 µM (inactive) | > 100 µM (inactive) | > 100 µM (inactive) | > 100 µM (inactive) | 13.8 µM (inactive) | > 100 µM (inactive) | > 100 µM (inactive) | > 100 µM (inactive) | > 100 µM (inactive) | > 100 µM (inactive) | > 100 µM (inactive) |
| CC(=O)N1CN2C(=O)CCC2c2cc(C)ccc21 (stereo not given) | > 100 µM (inactive) | > 100 µM (inactive) | > 100 µM (inactive) | > 100 µM (inactive) | > 100 µM (inactive) | > 100 µM (inactive) | > 100 µM (inactive) | > 100 µM (inactive) | > 100 µM (inactive) | > 100 µM (inactive) | > 100 µM (inactive) | > 100 µM (inactive) | > 100 µM (inactive) | > 100 µM (inactive) | > 100 µM (inactive) | > 100 µM (inactive) | > 100 µM (inactive) | > 100 µM (inactive) | > 100 µM (inactive) | > 100 µM (inactive) |
| COC12C=CC(CC1)C(C)(C)C2=O (stereo not given) | > 100 µM (inactive) | > 100 µM (inactive) | > 100 µM (inactive) | > 100 µM (inactive) | > 100 µM (inactive) | > 100 µM (inactive) | > 100 µM (inactive) | > 100 µM (inactive) | > 100 µM (inactive) | > 100 µM (inactive) | > 100 µM (inactive) | > 100 µM (inactive) | > 100 µM (inactive) | > 100 µM (inactive) | > 100 µM (inactive) | > 100 µM (inactive) | > 100 µM (inactive) | > 100 µM (inactive) | > 100 µM (inactive) | > 100 µM (inactive) |
| NCC(=O)N1CCN(c2nc(N3CCCC3)c3nc(Cl)c(NCc4ccccc4)nc3n2)CC1 | 1.71 µM (inactive) | 2.07 µM (inactive) | 1.45 µM (inactive) | 2.91 µM (inactive) | 1.8 µM (inactive) | 1.9 µM (inactive) | 1.74 µM (inactive) | 1.69 µM (inactive) | 1.42 µM (inactive) | 1.82 µM (inactive) | 1.63 µM (inactive) | 1.85 µM (inactive) | 1.66 µM (inactive) | 2.49 µM (inactive) | 1.82 µM (inactive) | 2.44 µM (inactive) | 1.72 µM (inactive) | 1.95 µM (inactive) | 1.87 µM (inactive) | 2.41 µM (inactive) |
| CCOC(=O)C1(C(=O)OCC)[C@@H](c2ccccc2)C2=NO[C@@H]3CCC[C@H]1[C@H]23 | 47.5 µM (inactive) | > 100 µM (inactive) | 42.7 µM (inactive) | > 100 µM (inactive) | 8.26 µM (inactive) | 49.4 µM (inactive) | 24 µM (inactive) | 89.3 µM (inactive) | 20.8 µM (inactive) | > 100 µM (inactive) | 50.4 µM (inactive) | 21.6 µM (inactive) | 18 µM (inactive) | 23.8 µM (inactive) | 27 µM (inactive) | 44.9 µM (inactive) | 31.9 µM (inactive) | 42.5 µM (inactive) | 48.4 µM (inactive) | > 100 µM (inactive) |
| Cc1c(-c2ccccc2)n[nH]c1NC1(C)C(=O)N(/N=C/c2ccccc2)N=C1c1ccccc1 (stereo not given) | > 33.6 µM (inactive) | > 100 µM (inactive) | > 100 µM (inactive) | > 100 µM (inactive) | > 100 µM (inactive) | > 100 µM (inactive) | > 100 µM (inactive) | > 100 µM (inactive) | > 26 µM (inactive) | > 100 µM (inactive) | > 100 µM (inactive) | 52.7 µM (inactive) | > 100 µM (inactive) | 25.9 µM (inactive) | > 31.6 µM (inactive) | > 100 µM (inactive) | > 87.3 µM (inactive) | > 100 µM (inactive) | 7.4 µM (inactive) | > 100 µM (inactive) |
| COC(=O)c1ccc(/C=C2\CCc3ccccc3C2=O)cc1 | > 100 µM (inactive) | > 100 µM (inactive) | > 100 µM (inactive) | > 100 µM (inactive) | > 100 µM (inactive) | > 100 µM (inactive) | > 100 µM (inactive) | > 100 µM (inactive) | > 100 µM (inactive) | > 100 µM (inactive) | > 100 µM (inactive) | > 100 µM (inactive) | > 100 µM (inactive) | > 100 µM (inactive) | > 100 µM (inactive) | > 100 µM (inactive) | > 100 µM (inactive) | > 100 µM (inactive) | > 100 µM (inactive) | > 100 µM (inactive) |
| C=CCc1cc(C(Cc2ccccc2)NC(C)C)cc(OCc2ccccc2)c1OCc1ccccc1 (stereo not given) | 14.3 µM (inactive) | 16 µM (inactive) | 12.5 µM (inactive) | 19.1 µM (inactive) | 15.1 µM (inactive) | 17.1 µM (inactive) | 18.8 µM (inactive) | 16.6 µM (inactive) | 14.5 µM (inactive) | 15.3 µM (inactive) | 15.8 µM (inactive) | 15.7 µM (inactive) | 13.7 µM (inactive) | 15.9 µM (inactive) | 16.7 µM (inactive) | 15.7 µM (inactive) | 15.3 µM (inactive) | 18.8 µM (inactive) | 16.7 µM (inactive) | 16.2 µM (inactive) |
| C=CC(C)(C)/C(=C\CO[Si](C(C)C)(C(C)C)C(C)C)C(=O)N(C)c1ccccc1I | 11.5 µM (inactive) | 11.5 µM (inactive) | 8.61 µM (inactive) | 13.9 µM (inactive) | 13.1 µM (inactive) | 13.4 µM (inactive) | 13.3 µM (inactive) | 14.5 µM (inactive) | 9.98 µM (inactive) | 14.5 µM (inactive) | 15.5 µM (inactive) | 24.9 µM (inactive) | 13.2 µM (inactive) | 5.79 µM (inactive) | 11.6 µM (inactive) | 19 µM (inactive) | 15.8 µM (inactive) | 11 µM (inactive) | 10.7 µM (inactive) | 13.9 µM (inactive) |
| CCC12CCCN(Cc3ccccc3)C1c1c([nH]c3ccccc13)C(C(=O)OC)C2 (stereo not given) | > 10 µM (inactive) | > 10 µM (inactive) | > 10 µM (inactive) | 7.89 µM (inactive) | > 10 µM (inactive) | > 10 µM (inactive) | > 10 µM (inactive) | > 10 µM (inactive) | 5.75 µM (inactive) | > 10 µM (inactive) | > 10 µM (inactive) | > 10 µM (inactive) | > 10 µM (inactive) | > 10 µM (inactive) | > 10 µM (inactive) | > 10 µM (inactive) | > 10 µM (inactive) | 8.38 µM (inactive) | > 10 µM (inactive) | > 10 µM (inactive) |
